Experimental data: US20240366589A1, “NHE3-BINDING COMPOUNDS AND METHODS FOR INHIBITING PHOSPHATE TRANSPORT” (Ardelyx, Inc., priority 2013, published 2024)

Tests used:
[1] = test system: phosphorus and calcium levels in the urine of rats; test: Urinary excretion of phosphate and calcium in rats (16 h overnight urine); type: in vivo, rat; conditions: rats, oral gavage, 16 h post-dose
Human NHE3 = target: T1, Human NHE3 (Homo sapiens, UniProt P48764); test: Cell-based NHE3 activity under prompt conditions (OK cells, BCECF pH recovery), human NHE3; conditions: for Prompt Human NHE3 pIC50: prompt conditions
T1 construct: expressed in transfected cells; host or cells: Opossum kidney (OK) cells (ATCC), electroporation
T1 sequence (P48764 26-834): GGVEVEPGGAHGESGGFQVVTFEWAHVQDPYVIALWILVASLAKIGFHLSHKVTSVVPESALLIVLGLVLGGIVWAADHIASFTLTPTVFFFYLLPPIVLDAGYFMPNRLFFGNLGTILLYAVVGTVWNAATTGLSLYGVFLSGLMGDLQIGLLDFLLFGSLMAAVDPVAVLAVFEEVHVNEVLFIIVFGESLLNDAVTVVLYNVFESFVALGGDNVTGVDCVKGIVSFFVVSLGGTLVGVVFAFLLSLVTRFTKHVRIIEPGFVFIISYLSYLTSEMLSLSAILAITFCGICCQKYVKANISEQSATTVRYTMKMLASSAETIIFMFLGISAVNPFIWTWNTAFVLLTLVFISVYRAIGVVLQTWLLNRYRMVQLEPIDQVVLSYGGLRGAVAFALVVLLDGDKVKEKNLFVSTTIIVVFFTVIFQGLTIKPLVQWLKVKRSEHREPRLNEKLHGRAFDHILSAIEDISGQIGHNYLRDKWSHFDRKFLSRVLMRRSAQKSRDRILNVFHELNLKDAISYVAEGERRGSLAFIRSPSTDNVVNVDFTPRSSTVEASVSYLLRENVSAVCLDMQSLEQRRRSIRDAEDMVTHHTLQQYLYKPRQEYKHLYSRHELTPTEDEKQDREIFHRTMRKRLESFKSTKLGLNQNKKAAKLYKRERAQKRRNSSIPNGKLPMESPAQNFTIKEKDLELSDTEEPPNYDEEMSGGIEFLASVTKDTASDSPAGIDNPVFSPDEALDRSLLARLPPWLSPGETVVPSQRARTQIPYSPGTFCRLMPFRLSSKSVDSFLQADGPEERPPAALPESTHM
Procedure: (§1) Cell-based activity under Prompt Conditions. Rat or human NHE3-mediated Na^+-dependent H antiport was measured using a modification of the pH sensitive dye method originally reported by Paradiso (PNAS USA. 81:7436-7440, 1984). Opossum kidney (OK) cells were obtained from the ATCC and propagated per their instructions. The rat NHE3 gene (GenBank M85300) or the human NHE3 gene (GenBank NM_004174.1) was introduced into OK cells via electroporation, and cells were seeded into 96 well plates and grown overnight. Medium was aspirated from the wells, cells were washed twice with NaCl-HEPES buffer (100 mM NaCl, 50 mM HEPES, 10 mM glucose, 5 mM KCl, 2 mM CaCl2, 1 mM MgCl2, pH 7.4), then incubated for 30 min at room temperature with NH4Cl-HEPES buffer (20 mM NH4Cl, 80 mM NaCl, 50 mM HEPES, 5 mM KCl, 2 mM CaCl2, 1 mM MgCl2, pH 7.4) containing 5 μM bis(acetoxymethyl) 3,3′-(3′,6′-bis(acetoxymethoxy)-5-((acetoxymethoxy)carbonyl)-3-oxo-3H-spiro[isobenzofuran-1,9′-xanthene]-2′,7′-diyl)dipropanoate (BCECF-AM).
(§2) Cells were washed twice with Ammonium free, Na^+-free HEPES (100 mM choline, 50 mM HEPES, 10 mM glucose, 5 mM KCl, 2 mM CaCl2, 1 mM MgCl2, pH 7.4) and incubated in the same buffer for 10 minutes at room temperature to lower intracellular pH. […] Initial rates were plotted as the average 2 or more replicates, and pIC50 values were estimated using GraphPad Prism.
(§3) Cell-based activity of NHE3 Activity under ‘Prompt’ Conditions. This assay was performed as described in Example 1 (supra).

[2] = test system: absorption of sodium from the intestinal lumen; test: Fecal form score (FFS) 16 h after oral dose in rats; type: in vivo, rat; conditions: oral gavage, 16 h post-dose, scale 1-5
Procedure: (§4) Inhibition of intestinal sodium and phosphate absorption. Urinary sodium concentration and fecal form were measured to assess the ability of selected example compounds to inhibit the absorption of sodium from the intestinal lumen. Eight-week old Sprague-Dawley rats were purchased from Charles River Laboratories (Hollister, CA), were housed 2 per cage, and acclimated for at least 3 days before study initiation. Animals were fed Harlan Teklad Global 2018 rodent chow (Indianapolis, IN) and water ad libitum throughout the study and maintained in a standard light/dark cycle of 6 AM to 6 PM. On the day of the study, between 4 PM and 5 PM, a group of rats (n=6) were dosed via oral gavage with test compound, or a pharmaceutically acceptable salt thereof, or vehicle (water) at a volume of 10 mL/kg.
(§5) After dose administration animals were placed in individual metabolic cages where they were also fed the same chow in meal form and watered ad libitum. At 16 h post-dose, the urine samples were collected and fecal form was assessed by two independent observations. Fecal forms were scored according to a common scale associated with increasing fecal water to the wettest observation in the cage's collection funnel (1, normal pellet; 2, pellet adhering to sides of collection funnel due to moisture; 3, loss of normal pellet shape; 4, complete loss of shape with a blotting pattern; 5, liquid fecal streams evident). A rat's fecal form score (FFS) was determined by averaging both observational scores for all rats within a group (n=6). The vehicle group average was 1.

[3] = test system: absorption of sodium from the intestinal lumen; test: Inhibition of intestinal sodium absorption: urinary sodium (uNa) 16 h after single oral dose in rats; type: in vivo, rat; conditions: for Urine Na % of control: oral gavage, 16 h post-dose
Procedure: as §4, §5
For urine samples, the volumes were determined gravimetrically and centrifuged at 3,600×g. The supernatants were diluted 100-fold in deionized Milli-Q water then filtered through a 0.2 μm GHP Pall AcroPrep filter plate (Pall Life Sciences, Ann Arbor, MI) prior to analysis by ion chromatography. Ten microliters of each filtered extract was injected onto a Dionex ICS-3000 ion chromatograph system (Dionex, Sunnyvale, CA). Cations were separated by an isocratic method using 25 mM methanesulfonic acid as the eluent on an IonPac CS12A 2 mm i.d.×250 mm, 8 μm particle size cation exchange column (Dionex). Sodium was quantified using standards prepared from a cation standard mix containing Li^+, Na^+, NH4^+, K^+, Mg^2+, and Ca^2+ (Dionex). The mean mass of sodium urinated for every group in the 16 h period was determined with the vehicle group usually urinating approximately 21 mg sodium. The urine Na (uNa) for rats in the test groups were expressed as a percentage of the vehicle mean and the means were compared to that of the vehicle group by utilizing a one-way analysis of variance coupled with a Dunnett's post hoc test.
Further experiments were performed to test the compounds under the persistent and prompt conditions described above, and to test their effects on urinary excretion of sodium in rats. The latter was performed by orally dosing the compounds in rats (single dose) and measuring urinary Na excretion (as a % of vehicle). The results are indicated as percentage of urinary sodium (UNa %); low values indicate relatively active compounds.

Rat NHE3 = target: T2, Rat NHE3 (Rattus norvegicus, UniProt P26433); test: Cell-based NHE3 activity under prompt conditions (OK cells, BCECF pH recovery), rat NHE3
T2 construct: expressed in transfected cells; host or cells: Opossum kidney (OK) cells (ATCC), electroporation
Procedure: as §1, §2, §3

T2 sequence (P26433 29-831): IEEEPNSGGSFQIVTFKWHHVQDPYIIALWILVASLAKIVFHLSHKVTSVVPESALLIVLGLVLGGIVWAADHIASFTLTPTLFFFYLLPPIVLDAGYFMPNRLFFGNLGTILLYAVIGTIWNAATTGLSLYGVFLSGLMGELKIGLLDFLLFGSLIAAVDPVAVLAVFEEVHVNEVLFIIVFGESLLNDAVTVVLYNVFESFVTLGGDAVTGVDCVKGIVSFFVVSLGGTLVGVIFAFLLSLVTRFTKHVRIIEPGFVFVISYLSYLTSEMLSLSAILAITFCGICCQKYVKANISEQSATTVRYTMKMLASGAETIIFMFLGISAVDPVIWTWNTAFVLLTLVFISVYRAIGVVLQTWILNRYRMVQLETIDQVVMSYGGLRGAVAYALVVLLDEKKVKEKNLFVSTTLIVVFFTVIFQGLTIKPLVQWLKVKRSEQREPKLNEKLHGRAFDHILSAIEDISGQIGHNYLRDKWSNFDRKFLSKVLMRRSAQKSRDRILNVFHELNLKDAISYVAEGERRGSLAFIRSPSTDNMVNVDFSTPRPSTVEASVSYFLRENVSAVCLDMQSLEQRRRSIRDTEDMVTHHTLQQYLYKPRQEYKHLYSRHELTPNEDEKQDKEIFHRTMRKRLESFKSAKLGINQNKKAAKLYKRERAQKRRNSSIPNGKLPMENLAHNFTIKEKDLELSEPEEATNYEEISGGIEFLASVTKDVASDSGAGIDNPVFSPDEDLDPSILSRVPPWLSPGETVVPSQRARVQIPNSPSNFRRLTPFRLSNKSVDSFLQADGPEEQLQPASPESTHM

| SMILES | Prompt Human NHE3 pIC50 (Human NHE3) | Prompt Rat NHE3 pIC50 (Rat NHE3; prompt conditions) | Urine P % of control ([1]; dose 10 mg/kg) | Fecal Form Score average ([2]; dose 10 mg/kg) | Urine Na % of control ([3]; dose 10 mg/kg) | also measured |
| --- | --- | --- | --- | --- | --- | --- |
| CN(C)[C@H]1Cc2c(Cl)cc(Cl)cc2[C@@H]1Oc1ccc(S(=O)(=O)NCCOCCOCCNC(=O)CCC(C)(N)CCC(=O)NCCOCCOCCNS(=O)(=O)c2ccc(O[C@H]3c4cc(Cl)cc(Cl)c4C[C@@H]3N(C)C)cc2)cc1 [compound 174] | 8.53 | 8.60 | 61% | 1 | 49% | Urine P % of control ([1]; dose 3 mg/kg): 55%; Fecal Form Score average ([2]; dose 3 mg/kg): 1; Urine Na % of control ([3]; dose 3 mg/kg): 37% |
| O=C(NCCCCNC(=O)NCCOCCOCCNS(=O)(=O)c1ccc(O[C@H]2c3ccccc3C[C@@H]2N2CCCCC2)cc1)NCCOCCOCCNS(=O)(=O)c1ccc(O[C@H]2c3ccccc3C[C@@H]2N2CCCCC2)cc1 [compound 66] | 8.35 | – | 30% | 1 | 35% | IC50 (Rat NHE3; prompt conditions, read-out: Prompt Rat NHE3 pIC50 (converted)): 4.47 nM |
| CC(O)C(CCC(=O)NCCOCCOCCNS(=O)(=O)c1cccc([C@@H]2CN(C)Cc3c(Cl)cc(Cl)cc32)c1)(CCC(=O)NCCOCCOCCNS(=O)(=O)c1cccc([C@@H]2CN(C)Cc3c(Cl)cc(Cl)cc32)c1)CCC(=O)NCCOCCOCCNS(=O)(=O)c1cccc([C@@H]2CN(C)Cc3c(Cl)cc(Cl)cc32)c1 (some centres unmarked) [compound 173] | 8.10 | 7.60 | – | – | – | – |
| O=C(NCCCCNC(=O)NCCOCCOCCNS(=O)(=O)c1ccc(O[C@H]2c3cc(Cl)cc(F)c3C[C@@H]2N2CCCCC2)cc1)NCCOCCOCCNS(=O)(=O)c1ccc(O[C@H]2c3cc(Cl)cc(F)c3C[C@@H]2N2CCCCC2)cc1 [compound 160] | 7.70 | – | 77% | 1 | 108% | – |
| CN1Cc2c(Cl)cc(Cl)cc2[C@H](c2cccc(S(=O)(=O)NCCOCCOCCOCCNC(=O)[C@@H](O)[C@H](O)C(=O)NCCOCCOCCOCCNS(=O)(=O)c3cccc([C@@H]4CN(C)Cc5c(Cl)cc(Cl)cc54)c3)c2)C1 [compound 6] | 8.30 | – | – | – | – | Urine P % of control ([1]; dose 1 mg/kg): 46%; Fecal Form Score average ([2]; dose 1 mg/kg): 2; Urine Na % of control ([3]; dose 1 mg/kg): 21% |
| CN1Cc2c(Cl)cc(Cl)cc2[C@H](c2cccc(NC(=O)[C@H](O)[C@@H](O)[C@H](O)[C@H](O)CO)c2)C1 [Cpd 001] | – | – | – | – | – | IC50 (Human NHE3; Table E5, 001 free base, 002-005 dihydrochloride salt, read-out: Human NHE3 pIC50 Prompt (converted)): 39.8 nM; UNa (%) ([3]; urinary Na excretion as % of vehicle, single oral dose 1 mg/kg): 41 @ 1 mg/kg %; Rat NHE3 pIC50 Prompt (Rat NHE3; Table E5, 001 free base, 002-005 dihydrochloride salt): 7.6 |

Further lines, with some results ahead:

| Prompt Human NHE3 pIC50 (Human NHE3) | Prompt Rat NHE3 pIC50 (Rat NHE3; prompt conditions) | SMILES | Urine P % of control ([1]; dose 10 mg/kg) | Fecal Form Score average ([2]; dose 10 mg/kg) | Urine Na % of control ([3]; dose 10 mg/kg) | also measured |
| --- | --- | --- | --- | --- | --- | --- |
| <5.00 | 5.30 | CN1Cc2c(Cl)cc(Cl)cc2[C@H](c2cccc(S(=O)(=O)NCCOCCOCCOCCNC(=O)CCC(CCC(=O)NCCOCCOCCOCCNS(=O)(=O)c3cccc([C@@H]4CN(C)Cc5c(Cl)cc(Cl)cc54)c3)(CCC(=O)NCCOCCOCCOCCNS(=O)(=O)c3cccc([C@@H]4CN(C)Cc5c(Cl)cc(Cl)cc54)c3)NC(=O)c3ccc(-c4ccc(Cl)cc4)cc3)c2)C1 [compound 91] | 56% | 1 | 77% | – |
| 7.00 | 6.50 | CN1Cc2c(Cl)cc(Cl)cc2[C@H](c2cccc(S(=O)(=O)NCCOCCOCCOCCNC(=O)CN(CC(=O)NCCOCCOCCOCCNS(=O)(=O)c3cccc([C@@H]4CN(C)Cc5c(Cl)cc(Cl)cc54)c3)[C@@H]3CCCC[C@H]3N(CC(=O)NCCOCCOCCOCCNS(=O)(=O)c3cccc([C@@H]4CN(C)Cc5c(Cl)cc(Cl)cc54)c3)CC(=O)NCCOCCOCCOCNS(=O)(=O)c3cccc([C@@H]4CN(C)Cc5c(Cl)cc(Cl)cc54)c3)c2)C1 [compound 71] | 40% | 1 | 80% | – |
| 7.00 | 6.60 | CN1Cc2c(Cl)cc(Cl)cc2[C@H](c2cccc(S(=O)(=O)NCCOCCOCCNC(=O)NCCN(CCNC(=O)NCCOCCOCCNS(=O)(=O)c3cccc([C@@H]4CN(C)Cc5c(Cl)cc(Cl)cc54)c3)C(=O)CCOCCOCCOCCOCCOCCOCCOCCOCCOCCC(=O)N(CCNC(=O)NCCOCCOCCNS(=O)(=O)c3cccc([C@@H]4CN(C)Cc5c(Cl)cc(Cl)cc54)c3)CCNC(=O)NCCOCCOCCNS(=O)(=O)c3cccc([C@@H]4CN(C)Cc5c(Cl)cc(Cl)cc54)c3)c2)C1 [compound 95] | 111% | 2 | 38% | – |
| 8.20 | 7.90 | CN(CC(=O)NCCOCCOCCNC(=O)NCCOCCOCCOCCOc1ccc(-c2nc(NC(=N)N)nc3ccc(Cl)cc23)cc1)CC(=O)NCCOCCOCCNC(=O)NCCOCCOCCOCCOc1ccc(-c2nc(NC(=N)N)nc3ccc(Cl)cc23)cc1 [compound 34] | 72% | 1 | 76% | – |
| 8.20 | – | CN(C)[C@H]1Cc2c(Cl)cc(Cl)cc2[C@@H]1Oc1ccc(S(=O)(=O)NCCOCCOCCNC(=O)NCCCCNC(=O)NCCOCCOCCN(C)S(=O)(=O)c2ccc(O[C@H]3c4cc(Cl)cc(Cl)c4C[C@@H]3N(C)C)cc2)cc1 [compound 171] | 49% | 1 | 49% | – |
